pIC50: −log10 of the molar value.
Key:
Type in all cases: biochemical
[1] = target: B-Raf (Homo sapiens, UniProt P15056); test: Kinase activity assay, B-Raf; conditions: Table 1b; read-out: activity toward kinase B-Raf, IC50
From the text: (§1) Assays for the activity of kinases, including, but not limited to, Fms, Kit, B-Raf, B-Raf V600E, c-Raf-1, and TrkA are known in the art, for example as described in US Patent Publication Number US20070032519 and U.S. patent application Ser. No. 11/473,347 (see also, PCT publication WO2007002433), the disclosures of which are hereby incorporated by reference with respect to such assays.

[2] = target: B-Raf V600E (Homo sapiens, UniProt P15056, V600E); test: Kinase activity assay, B-Raf V600E; conditions: Table 1c; read-out: activity toward kinase B-Raf V600E, IC50
Sequence of B-Raf V600E (P15056 whole entry V600E): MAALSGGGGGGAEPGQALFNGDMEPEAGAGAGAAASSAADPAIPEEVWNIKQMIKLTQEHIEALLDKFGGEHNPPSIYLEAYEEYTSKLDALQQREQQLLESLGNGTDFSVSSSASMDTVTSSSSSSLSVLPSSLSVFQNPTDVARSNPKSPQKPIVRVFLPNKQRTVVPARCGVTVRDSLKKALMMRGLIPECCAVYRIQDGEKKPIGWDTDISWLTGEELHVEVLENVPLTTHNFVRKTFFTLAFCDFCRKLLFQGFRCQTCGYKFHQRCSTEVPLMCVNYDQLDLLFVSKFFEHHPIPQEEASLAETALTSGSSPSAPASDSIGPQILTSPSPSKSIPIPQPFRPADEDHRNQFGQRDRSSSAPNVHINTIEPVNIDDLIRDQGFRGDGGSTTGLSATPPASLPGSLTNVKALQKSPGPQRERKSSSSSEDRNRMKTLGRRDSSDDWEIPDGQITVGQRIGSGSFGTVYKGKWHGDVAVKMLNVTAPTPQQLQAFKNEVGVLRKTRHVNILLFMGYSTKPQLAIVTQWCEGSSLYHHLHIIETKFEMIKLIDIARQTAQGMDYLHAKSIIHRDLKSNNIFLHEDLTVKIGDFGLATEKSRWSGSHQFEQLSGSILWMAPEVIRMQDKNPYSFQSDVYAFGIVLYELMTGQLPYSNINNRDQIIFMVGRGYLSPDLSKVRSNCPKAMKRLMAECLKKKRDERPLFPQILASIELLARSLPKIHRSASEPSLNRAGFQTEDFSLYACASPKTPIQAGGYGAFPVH
From the text: as §1

[3] = target: C-Raf (Homo sapiens, UniProt P04049); test: Kinase activity assay, C-Raf; conditions: Table 1d; read-out: activity toward kinase C-Raf, IC50
Sequence of C-Raf (P04049 whole entry): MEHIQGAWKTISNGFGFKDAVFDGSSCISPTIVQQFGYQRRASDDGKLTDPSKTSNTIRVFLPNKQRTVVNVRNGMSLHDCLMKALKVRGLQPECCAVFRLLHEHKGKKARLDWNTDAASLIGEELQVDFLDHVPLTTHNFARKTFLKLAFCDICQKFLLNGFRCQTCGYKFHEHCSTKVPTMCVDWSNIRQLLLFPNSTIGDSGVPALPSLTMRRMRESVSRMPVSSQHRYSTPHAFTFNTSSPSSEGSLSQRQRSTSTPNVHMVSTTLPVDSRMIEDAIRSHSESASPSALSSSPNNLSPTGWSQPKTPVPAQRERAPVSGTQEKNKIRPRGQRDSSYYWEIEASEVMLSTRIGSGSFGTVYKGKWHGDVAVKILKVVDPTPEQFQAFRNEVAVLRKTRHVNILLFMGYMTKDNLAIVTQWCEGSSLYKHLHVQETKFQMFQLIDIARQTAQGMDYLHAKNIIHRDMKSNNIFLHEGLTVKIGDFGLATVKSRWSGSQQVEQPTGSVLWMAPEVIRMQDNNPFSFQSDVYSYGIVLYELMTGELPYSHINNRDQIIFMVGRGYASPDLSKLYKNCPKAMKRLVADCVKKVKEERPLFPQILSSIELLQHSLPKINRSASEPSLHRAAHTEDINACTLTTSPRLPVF
From the text: as §1

[4] = target: Fms (Homo sapiens, UniProt P07333); test: Kinase activity assay, Fms; conditions: Table 1h; read-out: activity toward kinase Fms, IC50
Sequence of Fms (P07333 20-972): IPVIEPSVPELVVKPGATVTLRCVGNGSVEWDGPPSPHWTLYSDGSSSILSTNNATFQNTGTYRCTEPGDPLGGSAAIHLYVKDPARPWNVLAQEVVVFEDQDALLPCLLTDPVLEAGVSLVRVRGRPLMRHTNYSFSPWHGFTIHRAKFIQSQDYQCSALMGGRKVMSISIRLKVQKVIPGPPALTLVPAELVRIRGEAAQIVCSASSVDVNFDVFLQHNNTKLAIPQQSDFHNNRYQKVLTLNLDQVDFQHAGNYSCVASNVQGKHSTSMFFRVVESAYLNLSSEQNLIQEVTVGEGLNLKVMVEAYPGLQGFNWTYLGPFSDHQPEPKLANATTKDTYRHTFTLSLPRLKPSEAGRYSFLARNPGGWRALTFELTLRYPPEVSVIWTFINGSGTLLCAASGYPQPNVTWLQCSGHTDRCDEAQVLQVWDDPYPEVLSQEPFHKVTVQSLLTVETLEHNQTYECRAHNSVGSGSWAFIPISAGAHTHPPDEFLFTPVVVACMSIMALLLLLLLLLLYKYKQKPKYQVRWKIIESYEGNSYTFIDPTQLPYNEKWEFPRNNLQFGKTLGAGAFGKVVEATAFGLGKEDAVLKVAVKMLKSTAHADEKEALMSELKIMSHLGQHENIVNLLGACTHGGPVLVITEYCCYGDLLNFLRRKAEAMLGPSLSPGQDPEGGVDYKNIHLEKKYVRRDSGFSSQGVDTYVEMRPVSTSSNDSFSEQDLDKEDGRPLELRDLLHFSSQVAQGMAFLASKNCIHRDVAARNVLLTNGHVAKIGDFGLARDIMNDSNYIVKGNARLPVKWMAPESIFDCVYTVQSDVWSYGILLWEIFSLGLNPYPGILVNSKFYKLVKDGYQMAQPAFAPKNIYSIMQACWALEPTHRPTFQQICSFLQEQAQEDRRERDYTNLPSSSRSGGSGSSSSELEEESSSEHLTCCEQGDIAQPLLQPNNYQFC
From the text: as §1

[5] = target: Kdr (Homo sapiens, UniProt P35968); test: Kinase activity assay, Kdr; conditions: Table 1i; read-out: activity toward kinase Kdr, IC50
Sequence of Kdr (P35968 20-1356): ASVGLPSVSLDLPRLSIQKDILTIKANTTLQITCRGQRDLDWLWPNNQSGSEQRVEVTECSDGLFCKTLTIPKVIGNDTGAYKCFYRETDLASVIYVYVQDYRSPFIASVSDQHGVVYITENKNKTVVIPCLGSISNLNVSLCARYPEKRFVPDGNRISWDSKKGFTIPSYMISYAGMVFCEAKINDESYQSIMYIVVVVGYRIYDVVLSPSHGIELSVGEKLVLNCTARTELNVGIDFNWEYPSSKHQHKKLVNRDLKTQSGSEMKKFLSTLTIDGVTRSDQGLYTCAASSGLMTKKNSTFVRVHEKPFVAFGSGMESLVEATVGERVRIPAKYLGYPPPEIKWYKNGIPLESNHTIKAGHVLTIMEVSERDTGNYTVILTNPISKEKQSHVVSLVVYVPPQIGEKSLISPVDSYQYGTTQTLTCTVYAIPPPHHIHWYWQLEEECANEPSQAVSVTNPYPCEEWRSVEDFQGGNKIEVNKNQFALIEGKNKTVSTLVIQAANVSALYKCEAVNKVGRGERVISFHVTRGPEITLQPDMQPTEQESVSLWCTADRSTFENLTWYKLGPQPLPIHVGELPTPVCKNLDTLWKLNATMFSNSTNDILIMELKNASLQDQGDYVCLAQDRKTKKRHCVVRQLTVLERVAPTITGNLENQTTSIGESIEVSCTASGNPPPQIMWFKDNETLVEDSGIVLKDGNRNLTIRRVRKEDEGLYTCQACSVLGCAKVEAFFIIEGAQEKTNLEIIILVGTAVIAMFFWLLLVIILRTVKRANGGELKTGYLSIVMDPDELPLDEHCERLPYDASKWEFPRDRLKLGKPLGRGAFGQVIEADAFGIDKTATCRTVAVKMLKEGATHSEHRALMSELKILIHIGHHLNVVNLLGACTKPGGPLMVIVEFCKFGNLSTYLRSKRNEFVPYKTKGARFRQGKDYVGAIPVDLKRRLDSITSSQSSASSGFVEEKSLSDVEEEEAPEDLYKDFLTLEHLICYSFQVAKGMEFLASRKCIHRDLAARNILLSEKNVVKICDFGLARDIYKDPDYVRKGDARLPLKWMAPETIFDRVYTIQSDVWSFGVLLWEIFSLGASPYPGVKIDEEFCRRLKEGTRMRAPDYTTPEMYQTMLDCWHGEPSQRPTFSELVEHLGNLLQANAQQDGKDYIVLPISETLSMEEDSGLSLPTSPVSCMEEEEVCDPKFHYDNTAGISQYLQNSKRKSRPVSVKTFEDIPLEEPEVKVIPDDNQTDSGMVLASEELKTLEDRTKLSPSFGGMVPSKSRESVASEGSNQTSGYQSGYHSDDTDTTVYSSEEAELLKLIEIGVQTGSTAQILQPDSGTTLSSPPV
From the text: as §1

[6] = target: Kit (Homo sapiens, UniProt P10721); test: Kinase activity assay, Kit; conditions: Table 1j; read-out: activity toward kinase Kit, IC50
From the text: as §1

[7] = target: TrkA (Homo sapiens, UniProt P04629); test: Kinase activity assay, TrkA; conditions: Table 1m; read-out: activity toward kinase TrkA, IC50
Sequence of TrkA (P04629 33-796): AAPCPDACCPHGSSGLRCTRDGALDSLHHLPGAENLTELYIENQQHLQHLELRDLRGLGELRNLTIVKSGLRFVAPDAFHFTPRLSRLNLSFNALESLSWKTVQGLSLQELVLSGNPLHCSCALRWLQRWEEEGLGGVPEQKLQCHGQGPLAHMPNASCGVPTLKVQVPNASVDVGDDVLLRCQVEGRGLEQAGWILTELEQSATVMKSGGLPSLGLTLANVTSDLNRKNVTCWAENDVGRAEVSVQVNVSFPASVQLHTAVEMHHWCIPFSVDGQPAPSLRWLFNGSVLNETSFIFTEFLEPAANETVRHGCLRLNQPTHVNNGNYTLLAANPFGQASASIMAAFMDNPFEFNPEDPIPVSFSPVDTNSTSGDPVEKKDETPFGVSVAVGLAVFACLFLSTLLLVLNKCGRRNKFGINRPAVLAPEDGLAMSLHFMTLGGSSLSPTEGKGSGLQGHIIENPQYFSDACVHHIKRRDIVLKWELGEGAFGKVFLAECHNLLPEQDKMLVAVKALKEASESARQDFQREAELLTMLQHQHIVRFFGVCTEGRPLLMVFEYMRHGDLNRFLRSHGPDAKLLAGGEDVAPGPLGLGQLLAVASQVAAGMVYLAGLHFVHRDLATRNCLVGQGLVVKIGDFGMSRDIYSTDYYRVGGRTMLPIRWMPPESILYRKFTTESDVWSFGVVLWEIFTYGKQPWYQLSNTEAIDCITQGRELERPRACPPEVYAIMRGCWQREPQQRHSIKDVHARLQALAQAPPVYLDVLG
From the text: as §1

[8] = target: Src (Homo sapiens, UniProt P12931); test: Kinase activity assay, Src; conditions: Table 1k; read-out: activity toward kinase Src, IC50
Sequence of Src (P12931 whole entry): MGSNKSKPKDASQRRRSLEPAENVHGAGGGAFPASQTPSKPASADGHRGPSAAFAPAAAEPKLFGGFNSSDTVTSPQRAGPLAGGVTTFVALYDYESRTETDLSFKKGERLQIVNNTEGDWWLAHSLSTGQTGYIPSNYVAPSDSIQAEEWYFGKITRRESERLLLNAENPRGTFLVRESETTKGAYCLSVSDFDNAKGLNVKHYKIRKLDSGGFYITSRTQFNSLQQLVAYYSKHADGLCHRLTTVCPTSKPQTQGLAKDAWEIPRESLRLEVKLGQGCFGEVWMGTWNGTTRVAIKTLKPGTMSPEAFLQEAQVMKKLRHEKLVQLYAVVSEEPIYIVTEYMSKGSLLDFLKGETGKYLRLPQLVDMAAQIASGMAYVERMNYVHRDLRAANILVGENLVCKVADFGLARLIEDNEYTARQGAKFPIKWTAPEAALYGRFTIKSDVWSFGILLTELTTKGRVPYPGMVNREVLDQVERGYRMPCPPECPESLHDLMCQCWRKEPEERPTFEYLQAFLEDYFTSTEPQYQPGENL
From the text: as §1

[9] = target: T1, Flt-3 (Homo sapiens, UniProt P36888); test: Kinase activity assay, Flt-3; conditions: Table 1g; read-out: activity toward kinase Flt-3, IC50
T1 sequence (P36888 27-993): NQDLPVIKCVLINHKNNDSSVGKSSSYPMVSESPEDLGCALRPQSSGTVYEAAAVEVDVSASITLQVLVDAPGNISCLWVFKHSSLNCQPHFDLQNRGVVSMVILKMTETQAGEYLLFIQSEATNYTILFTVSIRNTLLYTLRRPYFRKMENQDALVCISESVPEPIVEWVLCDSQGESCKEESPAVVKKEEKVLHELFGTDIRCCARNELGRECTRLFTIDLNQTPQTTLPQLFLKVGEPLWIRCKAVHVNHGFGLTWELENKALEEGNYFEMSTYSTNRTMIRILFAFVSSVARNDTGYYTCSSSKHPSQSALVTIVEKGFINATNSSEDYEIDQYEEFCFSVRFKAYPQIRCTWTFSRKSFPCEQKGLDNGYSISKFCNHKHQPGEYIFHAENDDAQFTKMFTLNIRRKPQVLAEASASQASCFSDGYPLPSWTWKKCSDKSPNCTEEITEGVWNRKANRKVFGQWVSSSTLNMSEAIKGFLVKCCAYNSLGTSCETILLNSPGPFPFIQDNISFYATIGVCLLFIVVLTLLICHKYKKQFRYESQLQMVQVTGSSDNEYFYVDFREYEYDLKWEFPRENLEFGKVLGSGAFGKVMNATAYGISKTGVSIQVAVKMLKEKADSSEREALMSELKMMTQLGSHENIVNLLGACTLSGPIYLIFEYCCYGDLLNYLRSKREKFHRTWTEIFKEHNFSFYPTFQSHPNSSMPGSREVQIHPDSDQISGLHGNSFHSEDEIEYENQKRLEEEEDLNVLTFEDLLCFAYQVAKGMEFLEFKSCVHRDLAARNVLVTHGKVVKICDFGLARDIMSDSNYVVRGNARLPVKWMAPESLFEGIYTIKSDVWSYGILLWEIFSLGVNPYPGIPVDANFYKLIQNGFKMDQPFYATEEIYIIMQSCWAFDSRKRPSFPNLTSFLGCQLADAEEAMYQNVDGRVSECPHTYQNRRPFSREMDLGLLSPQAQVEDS
From the text: as §1

Measured: pIC50

Sequence of B-Raf (P15056 whole entry): as the sequence (P15056 whole entry V600E) above, with E600V counted along it

COc1ncnc2[nH]cc(Cc3cnc(NCc4ccc(C(F)(F)F)nc4)nc3)c12 [P-0102, [5-(4-Methoxy-7H-pyrrolo[2,3-d]pyrimidin-5-ylmethyl)-pyrimidin-2-yl]-(6-trifluoromethyl-pyridin-3-ylmethyl)-amine]
not listed: [8] | [9]
≥ 5.00: all other assays above

COc1ccc(CNc2ccc(Cc3c[nH]c4ncncc34)c(F)n2)c(OC)n1 [P-0043, (2,6-Dimethoxy-pyridin-3-ylmethyl)-[6-fluoro-5-(7H-pyrrolo[2,3-d]pyrimidin-5-ylmethyl)-pyridin-2-yl]-amine]
≥ 5.00: [1] | [4] | [5] | [6]

Fc1nc(NCc2cccnc2OC2CCCC2)ccc1Cc1c[nH]c2ncncc12 [P-0070, (2-Cyclopentyloxy-pyridin-3-ylmethyl)-[6-fluoro-5-(7H-pyrrolo[2,3-d]pyrimidin-5-ylmethyl)-pyridin-2-yl]-amine]
not listed: [8] | [9]
≥ 5.00: all other assays above

COc1ncccc1CNc1ccc(Cc2c[nH]c3ncnc(OC)c23)c(F)n1 [P-0097, [6-Fluoro-5-(4-methoxy-7H-pyrrolo[2,3-d]pyrimidin-5-ylmethyl)-pyridin-2-yl]-(2-methoxy-pyridin-3-ylmethyl)-amine]
≥ 5.00: [4] | [6] | [8] | [7]

COc1ncc(CNc2ccc(Cc3c[nH]c4ncncc34)c(F)n2)cc1F [P-0010, (5-Fluoro-6-methoxy-pyridin-3-ylmethyl)-[6-fluoro-5-(7H-pyrrolo[2,3-d]pyrimidin-5-ylmethyl)-pyridin-2-yl]-amine]
≥ 5.00: [9] | [4] | [5] | [7]

COc1cc(Cc2c[nH]c3ncnc(OC)c23)cnc1NCc1ccc(C(F)(F)F)nc1 [P-0096, [3-Methoxy-5-(4-methoxy-7H-pyrrolo[2,3-d]pyrimidin-5-ylmethyl)-pyridin-2-yl]-(6-trifluoromethyl-pyridin-3-ylmethyl)-amine]
≥ 5.00: [1] | [3] | [4] | [5] | [6]

COc1ncnc2[nH]cc(Cc3ccc(NCc4ccccc4Cl)nc3F)c12 [P-0090, (2-Chloro-benzyl)-[6-fluoro-5-(4-methoxy-7H-pyrrolo[2,3-d]pyrimidin-5-ylmethyl)-pyridin-2-yl]-amine]
≥ 5.00: [4] | [6] | [8] | [7]

c1cnc(OC2CCCC2)c(CNc2ncc(Cc3c[nH]c4ncncc34)cn2)c1 [P-0086, (2-Cyclopentyloxy-pyridin-3-ylmethyl)-[5-(7H-pyrrolo[2,3-d]pyrimidin-5-ylmethyl)-pyrimidin-2-yl]-amine]
not listed: [7] | [8] | [9]
≥ 5.00: all other assays above

COc1ncnc2[nH]cc(Cc3ccc(NCc4ccc(C(F)(F)F)nc4)nc3)c12 [P-0100, [5-(4-Methoxy-7H-pyrrolo[2,3-d]pyrimidin-5-ylmethyl)-pyridin-2-yl]-(6-trifluoromethyl-pyridin-3-ylmethyl)-amine]
not listed: [8] | [9]
≥ 5.00: all other assays above

COc1ccc(CNc2ccc(Cc3c[nH]c4ncncc34)cn2)cn1 [P-0002, (6-Methoxy-pyridin-3-ylmethyl)-[5-(7H-pyrrolo[2,3-d]pyrimidin-5-ylmethyl)-pyridin-2-yl]-amine]
≥ 5.00: [2] | [9] | [4] | [5] | [6]

CC(C)c1ncc(CNc2ccc(Cc3c[nH]c4ncncc34)c(F)n2)cn1 [P-0079, [6-Fluoro-5-(7H-pyrrolo[2,3-d]pyrimidin-5-ylmethyl)-pyridin-2-yl]-(2-isopropyl-pyrimidin-5-ylmethyl)-amine]
≥ 5.00: [4] | [5] | [8]

COc1ncnc2[nH]cc(Cc3cnc(NCc4ccc(C(F)(F)F)nc4)c(F)c3)c12 [P-0103, [3-Fluoro-5-(4-methoxy-7H-pyrrolo[2,3-d]pyrimidin-5-ylmethyl)-pyridin-2-yl]-(6-trifluoromethyl-pyridin-3-ylmethyl)-amine]
not listed: [8] | [9]
≥ 5.00: all other assays above

Fc1nc(NCc2ccc(N3CCCC3)cn2)ccc1Cc1c[nH]c2ncncc12 [P-0089, [6-Fluoro-5-(7H-pyrrolo[2,3-d]pyrimidin-5-ylmethyl)-pyridin-2-yl]-(5-pyrrolidin-1-yl-pyridin-2-ylmethyl)-amine]
≥ 5.00: [2] | [4] | [5] | [6] | [8]

COc1ncnc2[nH]cc(Cc3ccc(NCc4cnccc4C(F)(F)F)nc3F)c12 [P-0095, [6-Fluoro-5-(4-methoxy-7H-pyrrolo[2,3-d]pyrimidin-5-ylmethyl)-pyridin-2-yl]-(4-trifluoromethyl-pyridin-3-ylmethyl)-amine]
≥ 5.00: [2] | [4] | [6] | [8] | [7]

COc1ccc(CNc2ccc(C(=O)c3c[nH]c4ncncc34)cn2)cn1 [P-0008, {6-[(6-Methoxy-pyridin-3-ylmethyl)-amino]-pyridin-3-yl}-(7H-pyrrolo[2,3-d]pyrimidin-5-yl)-methanone]
≥ 5.00: [2] | [9] | [5] | [6]

CS(=O)(=O)c1ccc(F)cc1CNc1ccc(Cc2c[nH]c3ncncc23)c(F)n1 [P-0052, (5-Fluoro-2-methanesulfonyl-benzyl)-[6-fluoro-5-(7H-pyrrolo[2,3-d]pyrimidin-5-ylmethyl)-pyridin-2-yl]-amine]
≥ 5.00: [1] | [2] | [3] | [4] | [7]
